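Step 1: Grow cells in 96-well plates. Step 2: Expose to compound for 48 hours at 5 concentrations. Step 3: Interpolate endpoints linearly; if unreached, use highest concentration. At the TGI there is no net growth.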
Experiments:
Experiment in all cases: inhibition of tumour cell growth, NCI panel, 48 h
[1] = tested on: HCT-15 colon
[2] = tested on: OVCAR-5 ovarian
[3] = tested on: HCC-2998 colon
[4] = tested on: A498 renal
[5] = tested on: DMS 114 small cell lung
[6] = tested on: TK-10 renal
[7] = tested on: ACHN renal
[8] = tested on: CCRF-CEM leukemia
[9] = tested on: LXFL 529 NSCLC
[10] = tested on: HOP-18 NSCLC
[11] = tested on: HT29 colon
[12] = tested on: CAKI-1 renal
[13] = tested on: IGROV1 ovarian
[14] = tested on: U251 CNS
[15] = tested on: SF-539 CNS
[16] = tested on: SK-MEL-2 melanoma
[17] = tested on: LOX IMVI melanoma
[18] = tested on: K-562 leukemia
[19] = tested on: SF-295 CNS
[20] = tested on: RPMI-8226 leukemia
[21] = tested on: M19-MEL melanoma
[22] = tested on: DMS 273 small cell lung
[23] = tested on: DLD-1 colon
[24] = tested on: MALME-3M melanoma
[25] = tested on: HL-60(TB) leukemia
[26] = tested on: NCI-H226 lung
[27] = tested on: OVCAR-8 ovarian
[28] = tested on: RXF 393 renal
[29] = tested on: M14 melanoma
[30] = tested on: SK-MEL-28 melanoma
[31] = tested on: SW-620 colon
[32] = tested on: OVCAR-4 ovarian
[33] = tested on: A549 NSCLC
[34] = tested on: SN12C renal
[35] = tested on: HOP-92 NSCLC
[36] = tested on: HOP-62 NSCLC
[37] = tested on: SNB-78 CNS
[38] = tested on: COLO 205 colon
[39] = tested on: NCI-H23 lung
[40] = tested on: OVCAR-3 ovarian
[41] = tested on: HCT-116 colon
[42] = tested on: NCI-H460 lung
[43] = tested on: SK-OV-3 ovarian
[44] = tested on: SF-268 CNS
[45] = tested on: UACC-62 melanoma
[46] = tested on: KM20L2 colon
[47] = tested on: UO-31 renal
[48] = tested on: EKVX NSCLC
[49] = tested on: 786-0 renal
[50] = tested on: SK-MEL-5 melanoma
[51] = tested on: NCI-H522 lung
[52] = tested on: KM12 colon
[53] = tested on: UACC-257 melanoma
[54] = tested on: SNB-75 CNS
[55] = tested on: SNB-19 CNS
[56] = tested on: MOLT-4 leukemia
[57] = tested on: SR leukemia
[58] = tested on: XF 498 CNS

Q: With `COC1(C)C(=O)N2C1N(C(=O)OC(C)(C)C)CC2(C)C` (stereo not drawn) as the compound, how does the TGI [1] read?
A: > 100 µM

Q: And the TGI [2]?
A: > 100 µM

Q: What about the TGI [3] of the same compound?
A: > 100 µM

Q: And the TGI [4]?
A: > 100 µM

Q: What about the TGI [5] of the same compound?
A: > 100 µM

Q: And the TGI [6]?
A: > 100 µM

Q: And the TGI [7]?
A: > 100 µM

Q: And the TGI [8]?
A: > 100 µM

Q: What about the TGI [9] of the same compound?
A: > 100 µM

Q: And the TGI [10]?
A: > 100 µM

Q: And the TGI [11]?
A: > 100 µM

Q: And the TGI [12]?
A: > 100 µM

Q: And the TGI [13]?
A: > 100 µM

Q: And the TGI [14]?
A: > 100 µM

Q: What about the TGI [15] of the same compound?
A: > 100 µM

Q: And the TGI [16]?
A: > 100 µM

Q: And the TGI [17]?
A: 53.1 µM

Q: What about the TGI [18] of the same compound?
A: > 100 µM

Q: And the TGI [19]?
A: > 100 µM

Q: And the TGI [20]?
A: > 100 µM

Q: And the TGI [21]?
A: > 100 µM

Q: And the TGI [22]?
A: > 100 µM

Q: And the TGI [23]?
A: > 100 µM

Q: What about the TGI [24] of the same compound?
A: > 100 µM

Q: What about the TGI [25] of the same compound?
A: > 100 µM

Q: What about the TGI [26] of the same compound?
A: > 100 µM

Q: What about the TGI [27] of the same compound?
A: > 100 µM

Q: What about the TGI [28] of the same compound?
A: > 100 µM

Q: And the TGI [29]?
A: > 100 µM

Q: And the TGI [30]?
A: > 100 µM

Q: And the TGI [31]?
A: 37.5 µM

Q: What about the TGI [32] of the same compound?
A: > 100 µM

Q: And the TGI [33]?
A: > 100 µM

Q: And the TGI [34]?
A: > 100 µM

Q: And the TGI [35]?
A: > 100 µM

Q: What about the TGI [36] of the same compound?
A: > 100 µM

Q: And the TGI [37]?
A: > 100 µM

Q: What about the TGI [38] of the same compound?
A: > 100 µM

Q: What about the TGI [39] of the same compound?
A: > 100 µM

Q: What about the TGI [40] of the same compound?
A: > 100 µM

Q: And the TGI [41]?
A: > 100 µM

Q: And the TGI [42]?
A: > 100 µM

Q: What about the TGI [43] of the same compound?
A: > 100 µM

Q: And the TGI [44]?
A: > 100 µM

Q: What about the TGI [45] of the same compound?
A: > 100 µM

Q: And the TGI [46]?
A: > 100 µM

Q: And the TGI [47]?
A: > 100 µM

Q: What about the TGI [48] of the same compound?
A: > 100 µM

Q: What about the TGI [49] of the same compound?
A: > 100 µM

Q: And the TGI [50]?
A: > 100 µM

Q: What about the TGI [51] of the same compound?
A: > 100 µM

Q: And the TGI [52]?
A: > 100 µM

Q: And the TGI [53]?
A: > 100 µM

Q: What about the TGI [54] of the same compound?
A: > 100 µM

Q: What about the TGI [55] of the same compound?
A: > 100 µM

Q: And the TGI [56]?
A: > 100 µM

Q: `CCC1C(C(=O)Nc2ccccc2C)=C(C)NC(C)=C1c1ccccc1C` (stereo not drawn) was tested. Which TGI [1] did it give?
A: > 54.8 µM

Q: And the TGI [2]?
A: > 100 µM

Q: And the TGI [3]?
A: > 100 µM

Q: What about the TGI [4] of the same compound?
A: > 100 µM

Q: And the TGI [6]?
A: > 100 µM

Q: What about the TGI [7] of the same compound?
A: > 100 µM

Q: And the TGI [8]?
A: > 100 µM

Q: What about the TGI [9] of the same compound?
A: > 100 µM

Q: What about the TGI [10] of the same compound?
A: > 100 µM

Q: What about the TGI [11] of the same compound?
A: > 100 µM

Q: And the TGI [12]?
A: > 100 µM

Q: What about the TGI [13] of the same compound?
A: > 100 µM

Q: And the TGI [14]?
A: > 100 µM

Q: And the TGI [57]?
A: > 76.7 µM

Q: And the TGI [15]?
A: > 100 µM

Q: And the TGI [16]?
A: > 100 µM

Q: What about the TGI [17] of the same compound?
A: > 100 µM

Q: And the TGI [18]?
A: > 100 µM

Q: What about the TGI [19] of the same compound?
A: > 100 µM

Q: And the TGI [20]?
A: 61.5 µM

Q: What about the TGI [21] of the same compound?
A: > 100 µM

Q: And the TGI [22]?
A: > 83.2 µM

Q: What about the TGI [23] of the same compound?
A: > 59.7 µM

Q: What about the TGI [24] of the same compound?
A: > 100 µM

Q: What about the TGI [25] of the same compound?
A: 31.5 µM

Q: What about the TGI [26] of the same compound?
A: > 100 µM

Q: What about the TGI [27] of the same compound?
A: > 100 µM

Q: And the TGI [28]?
A: > 100 µM

Q: What about the TGI [29] of the same compound?
A: > 100 µM

Q: What about the TGI [30] of the same compound?
A: > 100 µM

Q: What about the TGI [31] of the same compound?
A: > 59.9 µM

Q: And the TGI [32]?
A: > 100 µM

Q: What about the TGI [33] of the same compound?
A: > 100 µM

Q: What about the TGI [34] of the same compound?
A: > 100 µM

Q: And the TGI [35]?
A: > 100 µM

Q: And the TGI [36]?
A: > 100 µM

Q: And the TGI [37]?
A: > 100 µM

Q: And the TGI [38]?
A: > 100 µM

Q: And the TGI [39]?
A: > 100 µM

Q: And the TGI [40]?
A: > 100 µM

Q: And the TGI [41]?
A: > 77.6 µM

Q: What about the TGI [42] of the same compound?
A: > 67.1 µM

Q: What about the TGI [58] of the same compound?
A: > 100 µM

Q: What about the TGI [43] of the same compound?
A: > 100 µM

Q: And the TGI [44]?
A: > 61.1 µM

Q: And the TGI [45]?
A: > 100 µM

Q: And the TGI [46]?
A: > 100 µM

Q: What about the TGI [47] of the same compound?
A: > 100 µM

Q: What about the TGI [48] of the same compound?
A: > 100 µM

Q: What about the TGI [49] of the same compound?
A: > 100 µM

Q: What about the TGI [50] of the same compound?
A: > 100 µM

Q: And the TGI [51]?
A: > 100 µM

Q: What about the TGI [52] of the same compound?
A: > 100 µM

Q: And the TGI [53]?
A: > 100 µM

Q: What about the TGI [54] of the same compound?
A: > 100 µM

Q: And the TGI [55]?
A: > 100 µM

Q: And the TGI [56]?
A: > 100 µM

Source: PubChem BioAssay (NCI)
